Laboratory results published in article PMC10950972, “Relative bioavailability of fedratinib through various alternative oral administration methods in healthy adults” (Cancer Chemotherapy and Pharmacology, 2023).
Where two headings read alike, the source gives them in different places. Marks after values point to notes of the source that are not given here.

How the values were obtained:
[1] = set-up: method as in earlier work; conditions: 400 mg dosing in patients with myelofibrosis; range 2–4 h; cited from earlier work
[2] = test system: patients with myelofibrosis; conditions: cited from earlier work
[3] = Phase 1 relative bioavailability study part 2: plasma pharmacokinetics of fedratinib (3-period crossover); assay type: in vivo, human; conditions: for Cmax / Tmax / AUC(0-t) / AUC(0-inf) / half-life: human, plasma; for half-life: read-out: t½, mean (SD) (converted)
Protocol: Study part 2 was a 3-period, 6-sequence, open-label, crossover design (Fig. 1B). Treatment 2A (reference) consisted of fedratinib 400 mg (4 × 100-mg capsules) administered orally alongside a nutritional supplement. Treatment 2B (test) consisted of fedratinib 400 mg dispersed in the nutritional supplement (180 mL, Ensure Plus), administered via nasogastric tube, and flushed with 60 mL of sterile water. Treatment 2C (test) consisted of fedratinib 400 mg as a divided dose (2 × 100-mg capsules BID) administered alongside the nutritional supplement. Participants were randomized to receive treatment in one of the following sequences: 2A–2B–2C, 2A–2C–2B, 2B–2A–2C, 2B–2C–2A, 2C–2A–2B, or 2C–2B–2A. […] In the case of an evening (second) dose in the divided dosing plan of treatment 2C, participants were directed to pre-fast at least 2 h before fedratinib dose, and 4 h after fedratinib dose, with water restricted from approximately 2 h before and 1 h after dosing, excluding water given with the treatment.
Approximately 1 h before each fedratinib administration, ondansetron oral tablet (film coated) 8 mg was given orally to reduce the potential for fedratinib-related nausea and vomiting. There was a washout period of at least 12 days between each dose of fedratinib. The duration from screening through the follow-up phone call was approximately 10 weeks. Participants resided at the clinical site from days -1 to 23 (study part 1), or days -1 to 35 (study part 2). If a participant discontinued from the study for any reason, an early termination visit was performed, with only the safety assessments scheduled for the day of discharge taking place. Additionally, each participant who discontinued also received a follow-up phone call 4 (± 2) days after completion of the early termination visit.
For study part 1, and part 2 treatments 2A and 2B, blood samples were collected pre-dose (0 h) and at 0.5, 1, 1.5, 2, 3, 4, 6, 8, 12, 24, 48, 72, 120, 168, 192, and 240 h post-dose. For treatment 2C, blood samples were collected pre-dose (0 h) and at 0.5, 1, 1.5, 2, 3, 4, 6, 8, 12, 12.5, 13, 13.5, 14, 15, 16, 18, 24, 48, 72, 120, 168, 192, and 240 h post-dose of the first dose. The plasma concentration of fedratinib was measured using a validated liquid chromatography-tandem mass spectrometry assay with a lower limit of quantification of 1.00 ng/mL [12, 20].
Plasma PK parameters were calculated using noncompartmental methods by a validated PK analysis program (Phoenix® WinNonlin®, v8.3.4 [Certara USA, Inc., Princeton, NJ, USA]) using actual times. The PK parameters determined for fedratinib Cmax, Tmax, AUC from time 0 to the time of the last quantifiable concentration (AUC0–t), AUC from time 0 to infinity (AUC0–∞), and t½. Additionally for treatment 2C, Cmax and Tmax were estimated after both the first dose (Cmax and Tmax) and the second dose (Cmax2 and Tmax2). AUC0–t and AUC0–∞ were estimated from time 0 (the first dose) through 240 h after the first dose. AUC parameters were calculated using the linear-log trapezoidal method.
The sample size for this study was based on consideration of the precision in the comparison of PK parameters, represented by the 90% confidence interval (CI) of the geometric mean ratios of Cmax and AUC of fedratinib. […] Only participants with valid PK data were included in the summary statistics and statistical analysis.
To compare the PK parameters and estimated relative bioavailability of fedratinib following different administration methods in each study part (treatment 1B to 1A, and treatment 2B and 2C to 2A), a linear mixed-effect model with treatment, period, and sequence as fixed effects and participant nested within sequence as a random effect was fitted to the natural log-transformed PK parameters (Cmax, AUC0–t, and AUC0–∞) for use in estimation of effects and construction of CIs. […]

[4] = test system: patients with myelofibrosis resistant/intolerant to prior ruxolitinib; set-up: method as in doi:10.1182/blood-2022-156669; conditions: fedratinib 400 mg/day, FREEDOM trial, 38 patients; cited from earlier work
[5] = Treatment 2B vs 2A (nasogastric tube vs intact capsules), linear mixed-effect model
[6] = Treatment 2C: 400 mg oral divided dose (2 × 100-mg capsules BID) with nutritional supplement, after second dose, n = 30

Cc1cnc(Nc2ccc(OCCN3CCCC3)cc2)nc1Nc1cccc(S(=O)(=O)NC(C)(C)C)c1 [fedratinib]
Time to peak concentration, median [1]: 3 h | Patients who experienced nausea ([2]; FREEDOM study): 39.5% | Patients who experienced nausea ([2]; JAKARTA trial): 62% | AUC0–∞ geometric mean ratio (90% CI) [3, 5]: 0.863 (0.816–0.912) | Cmax geometric mean ratio (90% CI) [3, 5]: 0.898 (0.837–0.963) | AUC0–∞ geometric mean ratio (90% CI) ([3]; Treatment 2C vs 2A (divided dose vs intact capsules QD), linear mixed-effect model): 0.850 (0.804–0.899) | Cmax2, geometric mean (Geo. %CV) [3, 6]: 487.3^b (44.0) ng/mL | Tmax2, median (range) [3, 6]: 3.9^b (1.0–6.0) h | Cmax ([3]; oral, 400 mg, Treatment 2C: 400 mg divided dose (2 × 100-mg capsules BID), after first dose, n = 30, read-out: Cmax, geometric mean (statistical analysis)): 641 ng/mL | Tmax ([3]; oral, 400 mg, Treatment 2C: 400 mg divided dose (2 × 100-mg capsules BID), after first dose, n = 30, read-out: Tmax, median (statistical analysis)): 2.26 h | AUC(0-t) ([3]; oral, 400 mg, Treatment 2C: 400 mg divided dose (2 × 100-mg capsules BID), n = 30, read-out: AUC0–t, geometric mean (statistical analysis)): 18900 ng·h/mL | AUC(0-inf) ([3]; oral, 400 mg, Treatment 2C: 400 mg divided dose (2 × 100-mg capsules BID), n = 30, read-out: AUC0–∞, geometric mean (statistical analysis)): 21300 ng·h/mL | AUC(0-t) ([3]; other: nasogastric tube, 400 mg, Treatment 2B: single 400 mg via nasogastric tube, capsule contents dispersed in nutritional supplement, n = 30, read-out: AUC0–t, geometric mean (Geo. %CV)): 19200 ng·h/mL | AUC(0-inf) ([3]; other: nasogastric tube, 400 mg, Treatment 2B: single 400 mg via nasogastric tube, capsule contents dispersed in nutritional supplement, n = 30, read-out: AUC0–∞, geometric mean (Geo. %CV)): 21600 ng·h/mL | Cmax ([3]; other: nasogastric tube, 400 mg, Treatment 2B: single 400 mg via nasogastric tube, capsule contents dispersed in nutritional supplement, n = 30, read-out: Cmax, geometric mean (Geo. %CV)): 1250 ng/mL | Tmax ([3]; other: nasogastric tube, 400 mg, Treatment 2B: single 400 mg via nasogastric tube, capsule contents dispersed in nutritional supplement, n = 30, read-out: Tmax, median (range)): 1.9 h | half-life ([3]; other: nasogastric tube, 400 mg, Treatment 2B: single 400 mg via nasogastric tube, capsule contents dispersed in nutritional supplement, n = 30): 106 h | AUC(0-t) ([3]; other: nasogastric tube, 400 mg, Treatment 2B: single 400 mg via nasogastric tube, dispersed in nutritional supplement, n = 30, read-out: AUC0–t, geometric mean (statistical analysis)): 19200 ng·h/mL | AUC(0-inf) ([3]; other: nasogastric tube, 400 mg, Treatment 2B: single 400 mg via nasogastric tube, dispersed in nutritional supplement, n = 30, read-out: AUC0–∞, geometric mean (statistical analysis)): 21600 ng·h/mL | Cmax ([3]; other: nasogastric tube, 400 mg, Treatment 2B: single 400 mg via nasogastric tube, dispersed in nutritional supplement, n = 30, read-out: Cmax, geometric mean (statistical analysis)): 1250 ng/mL | Tmax ([3]; other: nasogastric tube, 400 mg, Treatment 2B: single 400 mg via nasogastric tube, dispersed in nutritional supplement, n = 30, read-out: Tmax, median (statistical analysis)): 1.87 h | AUC(0-t) ([3]; po, 400 mg, Treatment 2A: single 400 mg oral, 4 × 100-mg intact capsules with nutritional supplement, n = 30, read-out: AUC0–t, geometric mean (Geo. %CV)): 22600 ng·h/mL | AUC(0-inf) ([3]; po, 400 mg, Treatment 2A: single 400 mg oral, 4 × 100-mg intact capsules with nutritional supplement, n = 30, read-out: AUC0–∞, geometric mean (Geo. %CV)): 25000 ng·h/mL | Cmax ([3]; po, 400 mg, Treatment 2A: single 400 mg oral, 4 × 100-mg intact capsules with nutritional supplement, n = 30, read-out: Cmax, geometric mean (Geo. %CV)): 1390 ng/mL | Tmax ([3]; po, 400 mg, Treatment 2A: single 400 mg oral, 4 × 100-mg intact capsules with nutritional supplement, n = 30, read-out: Tmax, median (range)): 2.9 h | half-life ([3]; po, 400 mg, Treatment 2A: single 400 mg oral, 4 × 100-mg intact capsules with nutritional supplement, n = 30): 96.8 h | AUC(0-t) ([3]; po, 400 mg, Treatment 2A: single 400 mg oral, intact capsules with nutritional supplement, n = 30, read-out: AUC0–t, geometric mean (statistical analysis)): 22600 ng·h/mL | AUC(0-inf) ([3]; po, 400 mg, Treatment 2A: single 400 mg oral, intact capsules with nutritional supplement, n = 30, read-out: AUC0–∞, geometric mean (statistical analysis)): 25000 ng·h/mL | Cmax ([3]; po, 400 mg, Treatment 2A: single 400 mg oral, intact capsules with nutritional supplement, n = 30, read-out: Cmax, geometric mean (statistical analysis)): 1390 ng/mL | Tmax ([3]; po, 400 mg, Treatment 2A: single 400 mg oral, intact capsules with nutritional supplement, n = 30, read-out: Tmax, median (statistical analysis)): 2.67 h | Cmax ([3]; po, 400 mg, Treatment 2C: 400 mg oral divided dose (2 × 100-mg capsules BID) with nutritional supplement, after the first dose, n = 30, read-out: Cmax, geometric mean (Geo. %CV)): 641 ng/mL | Tmax ([3]; po, 400 mg, Treatment 2C: 400 mg oral divided dose (2 × 100-mg capsules BID) with nutritional supplement, after the first dose, n = 30, read-out: Tmax, median (range)): 1.9 h | half-life ([3]; po, 400 mg, Treatment 2C: 400 mg oral divided dose (2 × 100-mg capsules BID) with nutritional supplement, after the second dose, n = 30): 96.7 h | AUC(0-t) ([3]; Treatment 2C: 400 mg oral divided dose (2 × 100-mg capsules BID) with nutritional supplement, from time 0 (first dose) through 240 h, n = 30, read-out: AUC0–t, geometric mean (Geo. %CV)): 18900 ng·h/mL | AUC(0-inf) ([3]; Treatment 2C: 400 mg oral divided dose (2 × 100-mg capsules BID) with nutritional supplement, from time 0 (first dose), n = 30, read-out: AUC0–∞, geometric mean (Geo. %CV)): 21300 ng·h/mL | Patients achieving ≥ 35% spleen volume reduction at the end of cycle 6 [4]: 25.7% | Patients achieving ≥ 50% reduction in total symptom score at end of cycle 6 [4]: 44.4% | Patients with best overall response of ≥ 35% spleen volume reduction at any time [4]: 62.9%
